Laboratory results as given in ChEMBL document CHEMBL4402544, “Reasonably activating Nrf2: A long-term, effective and controllable strategy for neurodegenerative diseases” (Eur J Med Chem, 2020).
Each block holds one compound with its values, some of them ahead of it. Where a SMILES comes first, the peptide text is derived from it. [ ]: non-standard residue; d: D form. ξ: configuration not given here. ξCha = NC(CC1CCCCC1)C(=O)O; ξThz = O=C(O)C1CSCN1

What was measured:
[1] = molecular target: T1, Nuclear factor erythroid 2-related factor 2 (Homo sapiens) (UniProt Q16236); assay: Activation of Nrf2 in human SK-N-SH cells expressing Nqo1 ARE-Luc reporter plasmid at 10 uM after 18 hrs by luciferase reporter gene assay; format: cell-based
T1 sequence (whole entry): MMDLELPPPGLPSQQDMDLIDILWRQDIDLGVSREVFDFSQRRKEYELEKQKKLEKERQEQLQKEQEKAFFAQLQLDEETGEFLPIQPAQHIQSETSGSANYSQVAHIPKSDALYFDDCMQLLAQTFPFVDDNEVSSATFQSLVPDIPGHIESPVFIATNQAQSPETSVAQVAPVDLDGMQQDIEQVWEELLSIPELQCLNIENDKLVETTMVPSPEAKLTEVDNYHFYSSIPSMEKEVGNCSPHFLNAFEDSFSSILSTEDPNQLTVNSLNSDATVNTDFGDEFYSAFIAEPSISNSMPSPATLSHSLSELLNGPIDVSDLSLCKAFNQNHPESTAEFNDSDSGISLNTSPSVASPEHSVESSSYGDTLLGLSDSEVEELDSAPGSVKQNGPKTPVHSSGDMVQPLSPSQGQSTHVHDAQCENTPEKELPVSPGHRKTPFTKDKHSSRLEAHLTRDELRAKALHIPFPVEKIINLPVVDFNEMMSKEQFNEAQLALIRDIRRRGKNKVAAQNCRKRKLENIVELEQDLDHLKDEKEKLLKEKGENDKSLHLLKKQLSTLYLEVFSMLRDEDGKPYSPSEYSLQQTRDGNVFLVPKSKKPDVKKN

[2] = Neuroprotection activity in human MC65 cells; format: functional, cell-based
[3] = molecular target: Kelch-like ECH-associated protein 1 (Homo sapiens, UniProt Q14145); assay: Binding affinity to Keap1 (unknown origin)
Kelch-like ECH-associated protein 1, sequence (Q14145 whole entry): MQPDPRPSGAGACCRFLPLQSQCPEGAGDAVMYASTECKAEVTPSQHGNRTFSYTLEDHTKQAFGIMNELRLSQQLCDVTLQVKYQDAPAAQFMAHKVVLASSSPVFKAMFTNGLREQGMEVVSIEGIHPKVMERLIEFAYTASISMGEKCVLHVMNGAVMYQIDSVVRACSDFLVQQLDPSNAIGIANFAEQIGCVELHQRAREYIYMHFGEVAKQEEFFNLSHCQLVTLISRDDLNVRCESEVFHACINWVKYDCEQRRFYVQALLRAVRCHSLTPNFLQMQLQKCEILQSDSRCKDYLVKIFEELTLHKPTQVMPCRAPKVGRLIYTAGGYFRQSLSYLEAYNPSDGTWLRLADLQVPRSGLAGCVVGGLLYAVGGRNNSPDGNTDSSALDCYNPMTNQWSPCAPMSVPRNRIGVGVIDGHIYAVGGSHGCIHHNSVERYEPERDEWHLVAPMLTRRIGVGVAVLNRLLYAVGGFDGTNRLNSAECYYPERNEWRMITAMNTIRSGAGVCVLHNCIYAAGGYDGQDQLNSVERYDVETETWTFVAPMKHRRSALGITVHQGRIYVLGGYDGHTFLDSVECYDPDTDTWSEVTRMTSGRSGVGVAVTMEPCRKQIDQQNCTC

[4] = molecular target: T1, Nuclear factor erythroid 2-related factor 2 (Homo sapiens); assay: Activation of Nrf2 (unknown origin) assessed as induction of ARE at 60 uM

fold change (FC) [1]: > 4
Compound: C[C@@H]1C(NC(=O)c2ccccc2O)=CC(=O)[C@@H]2O[C@H]12

Compound: COc1ccc2[nH]cc(CCNC(=O)CC(=O)CCc3ccc(O)cc3)c2c1
EC50 [2]: 27.6 nM

IC50 [3]: 31 nM
Compound: C[C@@H](O)[C@H](NC(=O)[C@H](CCC(=O)O)NC(=O)C1CSCN1C(=O)[C@@H](N)CC(=O)O)C(=O)NCC(=O)N[C@@H](CCC(=O)O)C(=O)NC(CC1CCCCC1)C(=O)O (some centres undefined) (H-D[ξThz]ETGE[ξCha]-OH)

fold change (FC) [4]: 30.7
Compound: C/C=C/C(=O)Oc1ccc2[nH]cc(CCNC(C)=O)c2c1
